Test results: PubChem BioAssay (NCI)
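Test compounds were applied to cells in 96-well plates for 48 hours at 5 doses. At the TGI there is no net growth.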

Experiments:
Assay in all cases: growth of human tumour cells (NCI), 48 h
786-0 renal = test system: 786-0 renal
A498 renal = test system: A498 renal
A549 NSCLC = test system: A549 NSCLC
ACHN renal = test system: ACHN renal
BT-549 breast = test system: BT-549 breast
CAKI-1 renal = test system: CAKI-1 renal
CCRF-CEM leukemia = test system: CCRF-CEM leukemia
COLO 205 colon = test system: COLO 205 colon
DU-145 prostate = test system: DU-145 prostate
EKVX NSCLC = test system: EKVX NSCLC
HCC-2998 colon = test system: HCC-2998 colon
HCT-116 colon = test system: HCT-116 colon
HCT-15 colon = test system: HCT-15 colon
HL-60(TB) leukemia = test system: HL-60(TB) leukemia
HOP-62 NSCLC = test system: HOP-62 NSCLC
HOP-92 NSCLC = test system: HOP-92 NSCLC
HS 578T breast = test system: HS 578T breast
HT29 colon = test system: HT29 colon
IGROV1 ovarian = test system: IGROV1 ovarian
K-562 leukemia = test system: K-562 leukemia
KM12 colon = test system: KM12 colon
LOX IMVI melanoma = test system: LOX IMVI melanoma
M14 melanoma = test system: M14 melanoma
MCF7 breast = test system: MCF7 breast
MDA-MB-231 breast = test system: MDA-MB-231 breast
MDA-MB-435 = test system: MDA-MB-435
MDA-N = test system: MDA-N
MOLT-4 leukemia = test system: MOLT-4 leukemia
NCI-H226 lung = test system: NCI-H226 lung
NCI-H23 lung = test system: NCI-H23 lung
NCI-H460 lung = test system: NCI-H460 lung
NCI-H522 lung = test system: NCI-H522 lung
NCI/ADR-RES ovarian = test system: NCI/ADR-RES ovarian
OVCAR-3 ovarian = test system: OVCAR-3 ovarian
OVCAR-5 ovarian = test system: OVCAR-5 ovarian
OVCAR-8 ovarian = test system: OVCAR-8 ovarian
PC-3 prostate = test system: PC-3 prostate
RPMI-8226 leukemia = test system: RPMI-8226 leukemia
RXF 393 renal = test system: RXF 393 renal
SF-268 CNS = test system: SF-268 CNS
SF-295 CNS = test system: SF-295 CNS
SF-539 CNS = test system: SF-539 CNS
SK-MEL-2 melanoma = test system: SK-MEL-2 melanoma
SK-MEL-28 melanoma = test system: SK-MEL-28 melanoma
SK-MEL-5 melanoma = test system: SK-MEL-5 melanoma
SK-OV-3 ovarian = test system: SK-OV-3 ovarian
SN12C renal = test system: SN12C renal
SNB-19 CNS = test system: SNB-19 CNS
SNB-75 CNS = test system: SNB-75 CNS
SW-620 colon = test system: SW-620 colon
T-47D breast = test system: T-47D breast
TK-10 renal = test system: TK-10 renal
U251 CNS = test system: U251 CNS
UACC-257 melanoma = test system: UACC-257 melanoma
UACC-62 melanoma = test system: UACC-62 melanoma
MALME-3M melanoma = test system: MALME-3M melanoma
OVCAR-4 ovarian = test system: OVCAR-4 ovarian
UO-31 renal = test system: UO-31 renal

Measured: TGI

C[C@@H](CC(=O)O)OC1OC(COC(=O)C(C)(C)C)C(OC(=O)C(C)(C)C)C(OC(=O)C(C)(C)C)C1OC(=O)C(C)(C)C (some centres not stated)
64.4 µM: ACHN renal
98.4 µM: SK-MEL-5 melanoma
98.2 µM: SNB-19 CNS
81.3 µM: MOLT-4 leukemia
55.9 µM: CCRF-CEM leukemia
93.5 µM: NCI-H23 lung
46.3 µM: HL-60(TB) leukemia
75.7 µM: NCI-H460 lung
84.9 µM: HCT-15 colon
71.8 µM: RPMI-8226 leukemia
not listed: MALME-3M melanoma | OVCAR-4 ovarian | UO-31 renal
> 100 µM: all other assays above

CC1=NN(c2nc(N)nc(CSc3cc(Cl)c(C)cc3S(N)(=O)=O)n2)C(C)(C)C1
0.953 µM: UO-31 renal
not listed: HOP-92 NSCLC
> 10 µM: all other assays above
